Experimental data published in ChEMBL document CHEMBL1130474, “Conformationally restricted arginine analogues as inhibitors of human nitric oxide synthase” (Bioorg Med Chem Lett, 1997).

What was measured:
[1] = target: T1, Nitric oxide synthase 3 (Homo sapiens, UniProt P29474); assay: Inhibitory constant for the inhibition of human Endothelial nitric oxide synthase
T1 sequence (P29474 whole entry): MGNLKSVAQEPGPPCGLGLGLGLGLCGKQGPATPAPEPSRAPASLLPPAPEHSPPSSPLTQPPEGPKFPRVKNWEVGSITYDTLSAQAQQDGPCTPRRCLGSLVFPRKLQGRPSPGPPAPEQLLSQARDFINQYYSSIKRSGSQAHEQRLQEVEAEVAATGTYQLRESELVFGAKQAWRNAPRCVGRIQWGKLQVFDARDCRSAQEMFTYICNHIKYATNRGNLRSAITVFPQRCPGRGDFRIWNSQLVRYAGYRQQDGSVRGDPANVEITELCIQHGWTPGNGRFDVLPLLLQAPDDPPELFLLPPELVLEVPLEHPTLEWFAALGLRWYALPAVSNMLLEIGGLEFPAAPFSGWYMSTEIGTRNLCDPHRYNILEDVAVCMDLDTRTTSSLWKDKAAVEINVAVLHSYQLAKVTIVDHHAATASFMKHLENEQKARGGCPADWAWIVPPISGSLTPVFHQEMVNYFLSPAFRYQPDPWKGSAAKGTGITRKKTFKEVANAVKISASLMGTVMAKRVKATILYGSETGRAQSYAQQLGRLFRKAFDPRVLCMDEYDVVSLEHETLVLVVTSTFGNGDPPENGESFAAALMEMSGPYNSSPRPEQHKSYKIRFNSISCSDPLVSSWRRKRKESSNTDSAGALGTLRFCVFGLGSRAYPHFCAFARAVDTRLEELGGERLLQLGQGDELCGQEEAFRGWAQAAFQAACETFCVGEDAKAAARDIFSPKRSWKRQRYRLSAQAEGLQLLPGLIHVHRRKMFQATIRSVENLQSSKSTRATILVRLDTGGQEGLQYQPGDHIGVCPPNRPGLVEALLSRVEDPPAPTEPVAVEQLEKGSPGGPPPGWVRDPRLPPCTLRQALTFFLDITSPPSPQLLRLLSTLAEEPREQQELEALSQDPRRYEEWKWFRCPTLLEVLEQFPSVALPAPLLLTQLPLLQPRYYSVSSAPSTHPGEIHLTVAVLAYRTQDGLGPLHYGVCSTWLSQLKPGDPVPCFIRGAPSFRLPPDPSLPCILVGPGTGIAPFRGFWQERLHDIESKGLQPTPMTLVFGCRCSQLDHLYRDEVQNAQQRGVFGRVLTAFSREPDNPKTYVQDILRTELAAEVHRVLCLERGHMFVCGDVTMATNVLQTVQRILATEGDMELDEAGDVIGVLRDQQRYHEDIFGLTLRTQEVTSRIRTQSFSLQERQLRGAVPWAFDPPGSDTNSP

[2] = target: Nitric oxide synthase 1 (Homo sapiens, UniProt P29475); assay: Inhibitory constant for the inhibition of human Neuronal nitric oxide synthase
Chain of Nitric oxide synthase 1 (P29475 whole entry): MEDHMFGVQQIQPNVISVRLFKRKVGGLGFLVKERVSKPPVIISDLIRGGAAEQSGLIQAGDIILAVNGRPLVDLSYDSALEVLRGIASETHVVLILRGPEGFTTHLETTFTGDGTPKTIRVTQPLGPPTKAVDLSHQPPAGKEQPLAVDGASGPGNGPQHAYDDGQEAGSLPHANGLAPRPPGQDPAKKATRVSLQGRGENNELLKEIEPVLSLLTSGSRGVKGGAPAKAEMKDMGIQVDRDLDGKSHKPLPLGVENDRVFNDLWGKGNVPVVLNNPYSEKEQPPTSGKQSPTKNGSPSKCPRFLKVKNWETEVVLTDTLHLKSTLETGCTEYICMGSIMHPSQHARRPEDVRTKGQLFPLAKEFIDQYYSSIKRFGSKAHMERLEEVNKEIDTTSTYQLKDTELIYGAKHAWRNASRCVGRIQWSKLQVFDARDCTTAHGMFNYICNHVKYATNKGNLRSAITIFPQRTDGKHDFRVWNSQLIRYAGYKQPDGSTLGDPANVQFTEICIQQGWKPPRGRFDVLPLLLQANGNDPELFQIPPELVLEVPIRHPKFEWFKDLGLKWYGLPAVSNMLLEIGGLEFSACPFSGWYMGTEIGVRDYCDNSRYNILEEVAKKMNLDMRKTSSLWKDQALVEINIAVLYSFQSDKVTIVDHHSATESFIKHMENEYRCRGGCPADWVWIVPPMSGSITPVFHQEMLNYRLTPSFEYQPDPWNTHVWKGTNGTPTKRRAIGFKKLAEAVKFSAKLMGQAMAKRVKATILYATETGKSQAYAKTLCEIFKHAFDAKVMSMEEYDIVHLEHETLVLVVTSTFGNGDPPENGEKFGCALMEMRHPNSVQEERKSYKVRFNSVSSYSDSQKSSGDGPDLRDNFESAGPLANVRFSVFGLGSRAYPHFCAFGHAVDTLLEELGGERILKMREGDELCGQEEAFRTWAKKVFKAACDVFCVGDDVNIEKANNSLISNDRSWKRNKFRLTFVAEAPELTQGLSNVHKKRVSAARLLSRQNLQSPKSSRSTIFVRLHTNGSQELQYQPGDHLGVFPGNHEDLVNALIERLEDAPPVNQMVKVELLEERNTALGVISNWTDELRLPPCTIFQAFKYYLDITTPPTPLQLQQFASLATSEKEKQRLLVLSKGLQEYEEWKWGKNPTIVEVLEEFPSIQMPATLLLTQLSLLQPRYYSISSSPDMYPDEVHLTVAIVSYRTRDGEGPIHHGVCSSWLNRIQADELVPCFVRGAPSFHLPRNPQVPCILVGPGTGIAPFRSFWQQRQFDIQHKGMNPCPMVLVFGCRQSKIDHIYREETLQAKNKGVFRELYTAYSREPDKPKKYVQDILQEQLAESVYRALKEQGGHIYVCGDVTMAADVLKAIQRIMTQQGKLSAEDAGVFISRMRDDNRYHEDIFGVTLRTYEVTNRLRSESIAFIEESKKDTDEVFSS

[3] = target: Nitric oxide synthase, inducible (Homo sapiens, UniProt P35228); assay: Inhibitory constant for the inhibition of human Inducible nitric oxide synthase
Chain of Nitric oxide synthase, inducible (P35228 whole entry): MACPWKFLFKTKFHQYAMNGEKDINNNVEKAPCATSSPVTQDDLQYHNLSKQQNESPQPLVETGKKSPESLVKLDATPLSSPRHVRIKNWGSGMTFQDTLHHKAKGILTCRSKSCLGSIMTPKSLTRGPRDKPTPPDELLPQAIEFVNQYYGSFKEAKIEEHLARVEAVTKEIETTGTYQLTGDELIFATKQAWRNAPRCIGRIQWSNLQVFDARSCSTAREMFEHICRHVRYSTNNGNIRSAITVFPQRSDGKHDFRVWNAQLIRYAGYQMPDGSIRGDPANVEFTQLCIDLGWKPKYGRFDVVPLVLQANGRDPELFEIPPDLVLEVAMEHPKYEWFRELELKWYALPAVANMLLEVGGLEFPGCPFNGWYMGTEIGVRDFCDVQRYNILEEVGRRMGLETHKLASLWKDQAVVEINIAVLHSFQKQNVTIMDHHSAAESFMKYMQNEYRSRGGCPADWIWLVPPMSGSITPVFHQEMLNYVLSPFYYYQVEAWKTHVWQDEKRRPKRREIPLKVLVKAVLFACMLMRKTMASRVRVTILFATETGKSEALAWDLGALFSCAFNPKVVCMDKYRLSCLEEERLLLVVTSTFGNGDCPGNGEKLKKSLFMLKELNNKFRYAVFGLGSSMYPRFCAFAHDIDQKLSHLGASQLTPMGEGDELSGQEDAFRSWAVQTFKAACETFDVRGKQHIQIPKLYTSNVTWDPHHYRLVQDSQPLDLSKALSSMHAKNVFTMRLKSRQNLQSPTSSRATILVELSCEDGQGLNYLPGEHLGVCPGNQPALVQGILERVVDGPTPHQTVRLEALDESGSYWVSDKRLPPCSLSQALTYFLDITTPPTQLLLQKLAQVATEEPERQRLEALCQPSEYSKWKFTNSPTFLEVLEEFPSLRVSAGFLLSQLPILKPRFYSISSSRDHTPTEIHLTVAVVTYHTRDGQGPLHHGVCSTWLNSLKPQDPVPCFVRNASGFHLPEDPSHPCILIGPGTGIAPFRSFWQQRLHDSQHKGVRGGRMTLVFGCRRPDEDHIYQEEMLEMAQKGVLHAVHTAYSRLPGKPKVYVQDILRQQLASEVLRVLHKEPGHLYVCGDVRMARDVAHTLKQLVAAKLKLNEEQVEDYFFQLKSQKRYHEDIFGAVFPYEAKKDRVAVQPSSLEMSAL

Ki [1] [nM] | Ki [2] [nM] | Ki [3] [nM] | Compound
1600 | 1300 | 1900 | CC(=N)Nc1ccccc1CC(N)C(=O)O (stereo not given)
810 | – | 340 | CC(=N)NCCC[C@H](N)C(=O)O [L-NIO]
8800 | 8400 | 96000 | CNC(N)=Nc1cccc(CC(N)C(=O)O)c1 (stereo not given)
46000 | 44000 | 100000 | N=C(N)Nc1cccc(CC(N)C(=O)O)c1 (stereo not given)
250 | 370 | 2600 | NC(N)=Nc1ccccc1CC(N)C(=O)O (stereo not given)
39000 | 29000 | 82000 | CC(=N)Nc1cccc(CC(N)C(=O)O)c1 (stereo not given)
270 | 410 | 600 | C/N=C(/N)Nc1ccccc1CC(N)C(=O)O (stereo not given)
